According to patent US6737383B1, “Herbicidal oxadiazolidines” (priority 1999, dated 2004):

Key:
wheat = assay: Test B pre/postemergence wheat; format: in vivo, Triticum aestivum
Method in brief: (§1)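 Response is a visual 0-to-10 score relative to untreated plants, where 0 means no effect and 10 means complete control, taken twelve to sixteen days after application. Treatments went onto soil at planting and onto foliage of 1- to 4-leaf plants, using a surfactant-containing non-phytotoxic solvent.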

wild oat = assay: Test B pre/postemergence wild oat; format: in vivo, Avena fatua
Method in brief: as §1

crabgrass = assay: Test B pre/postemergence crabgrass; format: in vivo, Digitaria sanguinalis
Method in brief: as §1

cocklebur = assay: Test B pre/postemergence cocklebur; format: in vivo, Xanthium strumarium
Method in brief: as §1

[1] = Postemergence, Rate 250 g/ha, scale 0 to 10, 0 no effect, 10 complete control
[2] = Postemergence, Rate 1000 g/ha, scale 0 to 10 (0 no effect, 10 complete control)
[3] = Preemergence, Rate 125 g/ha, scale 0 to 10 (0 no effect, 10 complete control)
[4] = Preemergence, Rate 250 g/ha, scale of 0 to 10 where 0 is no effect and 10 is complete control
[5] = Preemergence, Rate 500 g/ha, scale 0 (no effect) to 10 (complete control)
[6] = Rate 125 g/ha, Postemergence, scale 0 to 10, 0 no effect, 10 complete control
[7] = Rate 1000 g/ha, Preemergence, scale 0 to 10 (0 no effect, 10 complete control)
[8] = Rate 500 g/ha, Postemergence, 0 to 10 scale (0 no effect, 10 complete control)
[9] = Postemergence, Rate 62 g/ha, scale 0 to 10, 0 is no effect, 10 is complete control
[10] = Preemergence, Rate 62 g/ha, scale 0 to 10, 0 is no effect, 10 is complete control
[11] = Preemergence, Rate 62 g/ha, scale 0 to 10 (0 no effect, 10 complete control)
[12] = Rate 500 g/ha, Postemergence, scale 0 to 10, 0 no effect, 10 complete control

| Structure (SMILES) | Wheat plant response rating (wheat; [1]) | Plant response rating, Wheat (wheat; [3]) | Plant response rating, Wheat (wheat; [4]) | Wheat plant response rating (wheat; [5]) | Wheat plant response rating (wheat; [6]) | Wild oats plant response rating (wild oat; [1]) | Plant response rating, Wild oats (wild oat; [3]) | Plant response rating, Wild oats (wild oat; [4]) | Wild oats plant response rating (wild oat; [5]) | Wild oats plant response rating (wild oat; [6]) | Crabgrass plant response rating (crabgrass; [1]) | Crabgrass plant response rating (crabgrass; [5]) | Crabgrass plant response rating (crabgrass; [6]) | Cocklebur plant response rating (cocklebur; [1]) | Plant response rating, Cocklebur (cocklebur; [3]) | Plant response rating, Cocklebur (cocklebur; [4]) | Cocklebur plant response rating (cocklebur; [5]) | Cocklebur plant response rating (cocklebur; [6]) | Plant response rating, Crabgrass (crabgrass; [3]) | Plant response rating, Crabgrass (crabgrass; [4]) | other results |
| --- | --- | --- | --- | --- | --- | --- | --- | --- | --- | --- | --- | --- | --- | --- | --- | --- | --- | --- | --- | --- | --- |
| CC(C)N(C(=O)n1oc(=O)n(-c2ccccc2Cl)c1=O)c1ccc(F)cc1 [Compound 8] | 0 | 0 | 0 | 0 | 0 | 0 | 0 | 0 | 2 | 0 | 0 | 6 | 0 | 0 | 0 | 0 | 0 | 0 | – | – | Wheat plant response rating (wheat; [2]): 3; Plant response rating, Wheat (wheat; [7]): 0; Wild oats plant response rating (wild oat; [2]): 3; Plant response rating, Wild oats (wild oat; [7]): 3; Crabgrass plant response rating (crabgrass; [2]): 6; Crabgrass plant response rating (crabgrass; [8]): 0; Plant response rating, Crabgrass (crabgrass; [7]): 9; Cocklebur plant response rating (cocklebur; [2]): 2; Cocklebur plant response rating (cocklebur; [8]): 1; Plant response rating, Cocklebur (cocklebur; [7]): 0 |
| CCN(CC)C(=O)n1oc(=O)n(-c2ccc(OC(F)(F)F)cc2)c1=O [Compound 12] | 0 | 0 | 0 | 0 | 0 | 0 | 0 | 0 | 0 | 0 | 0 | 0 | 0 | 0 | 0 | 0 | 0 | 0 | 0 | 0 | Wheat plant response rating (wheat; [2]): 0; Plant response rating, Wheat (wheat; [7]): 0; Wild oats plant response rating (wild oat; [2]): 0; Plant response rating, Wild oats (wild oat; [7]): 0; Crabgrass plant response rating (crabgrass; [2]): 0; Crabgrass plant response rating (crabgrass; [8]): 0; Plant response rating, Crabgrass (crabgrass; [7]): 6; Cocklebur plant response rating (cocklebur; [2]): 0; Cocklebur plant response rating (cocklebur; [8]): 0; Plant response rating, Cocklebur (cocklebur; [7]): 0 |
| Cc1ccccc1-n1c(=O)on(C(=O)N(c2ccc(F)cc2F)C(C)C)c1=O [Compound 25] | 0 | 0 | 0 | 0 | 0 | 1 | 2 | 6 | 7 | 0 | 9 | 10 | 7 | 2 | 0 | 0 | 0 | 2 | 8 | 10 | Wheat plant response rating (wheat; [9]): 0; Plant response rating, Wheat (wheat; [10]): 0; Wild oats plant response rating (wild oat; [9]): 0; Crabgrass plant response rating (crabgrass; [9]): 2; Plant response rating, Crabgrass (crabgrass; [10]): 5; Crabgrass plant response rating (crabgrass; [8]): 9; Cocklebur plant response rating (cocklebur; [9]): 0; Plant response rating, Cocklebur (cocklebur; [10]): 0; Cocklebur plant response rating (cocklebur; [8]): 5 |
| Cc1ccccc1-n1c(=O)on(C(=O)N(c2cc(F)ccc2F)C(C)C)c1=O [Compound 68] | 0 | 0 | 0 | 0 | 0 | 0 | 0 | 2 | 2 | 0 | 0 | 10 | 0 | 2 | 0 | 0 | 0 | 0 | 3 | 10 | Wheat plant response rating (wheat; [9]): 0; Wheat plant response rating (wheat; [11]): 0; Wheat plant response rating (wheat; [12]): 0; Wild oats plant response rating (wild oat; [9]): 0; Wild oats plant response rating (wild oat; [11]): 0; Wild oats plant response rating (wild oat; [12]): 0; Crabgrass plant response rating (crabgrass; [9]): 0; Crabgrass plant response rating (crabgrass; [11]): 2; Crabgrass plant response rating (crabgrass; [12]): 0; Cocklebur plant response rating (cocklebur; [9]): 0; Cocklebur plant response rating (cocklebur; [11]): 0; Cocklebur plant response rating (cocklebur; [12]): 2 |
| CCN(C(=O)n1oc(=O)n(Cc2cccs2)c1=O)C1CCCCC1 [Compound 82] | 0 | 0 | 0 | 0 | 0 | 0 | 0 | 0 | 0 | 0 | 0 | 0 | 0 | 0 | 0 | 0 | 0 | 0 | 0 | 0 | Wheat plant response rating (wheat; [9]): 0; Wheat plant response rating (wheat; [11]): 0; Wheat plant response rating (wheat; [12]): 0; Wild oats plant response rating (wild oat; [9]): 0; Wild oats plant response rating (wild oat; [11]): 0; Wild oats plant response rating (wild oat; [12]): 0; Crabgrass plant response rating (crabgrass; [9]): 0; Crabgrass plant response rating (crabgrass; [11]): 0; Crabgrass plant response rating (crabgrass; [12]): 0; Cocklebur plant response rating (cocklebur; [9]): 0; Cocklebur plant response rating (cocklebur; [11]): 0; Cocklebur plant response rating (cocklebur; [12]): 0 |
